ChEMBL document CHEMBL1671742, “Overexpression of the adeB gene in clinical isolates of tigecycline-nonsusceptible Acinetobacter baumannii without insertion mutations in adeRS” (Antimicrob Agents Chemother, 2010)
≈ marks a conversion by molar mass, not a printed value.

Tests used:
Acinetobacter baumannii [1] = assay: Antibacterial activity against intI1-positive tigecycline-intermediate Acinetobacter baumannii AB099 with PFGE subgroup H containing carbapenemase OXA-23 and OXA-51 by Etest in presence of 64 mg/liter 1-(1-naphthylmethyl)-piperazine; assay type: functional
Acinetobacter baumannii [2] = assay: Antibacterial activity against intI1-positive tigecycline-resistant Acinetobacter baumannii AB118 with PFGE subgroup B2 containing carbapenemase OXA-23 and OXA-51 by Etest in presence of 64 mg/liter 1-(1-naphthylmethyl)-piperazine; assay type: functional
Acinetobacter baumannii [3] = assay: Antibacterial activity against intI1-positive tigecycline-resistant Acinetobacter baumannii AB096 with PFGE subgroup B1 containing carbapenemase OXA-23 and OXA-51 by Etest in presence of 64 mg/liter 1-(1-naphthylmethyl)-piperazine; assay type: functional
Acinetobacter baumannii [4] = assay: Antibacterial activity against intI1-positive tigecycline-resistant Acinetobacter baumannii AB118 with PFGE subgroup B2 containing carbapenemase OXA-23 and OXA-51 by Etest; assay type: functional
Acinetobacter baumannii [5] = assay: Antibacterial activity against intI1-positive tigecycline-resistant Acinetobacter baumannii AB106 with PFGE subgroup B1 containing carbapenemase OXA-23 and OXA-51 by Etest in presence of 64 mg/liter 1-(1-naphthylmethyl)-piperazine; assay type: functional
Acinetobacter baumannii [6] = assay: Antibacterial activity against intI1-positive tigecycline-susceptible Acinetobacter baumannii AB095 with PFGE subgroup E containing carbapenemase OXA-23 and OXA-51 by Etest; assay type: functional
Acinetobacter baumannii [7] = assay: Antibacterial activity against intI1-positive tigecycline-susceptible Acinetobacter baumannii AB110 with PFGE subgroup C containing carbapenemase OXA-51 by Etest in presence of 64 mg/liter 1-(1-naphthylmethyl)-piperazine; assay type: functional
Acinetobacter baumannii [8] = assay: Antibacterial activity against intI1-positive tigecycline-susceptible Acinetobacter baumannii AB039 with PFGE subgroup B1 containing carbapenemase OXA-23 and OXA-51 by Etest in presence of 64 mg/liter 1-(1-naphthylmethyl)-piperazine; assay type: functional
Acinetobacter baumannii [9] = assay: Antibacterial activity against Multidrug-resistant Acinetobacter baumannii by broth microdilution method; assay type: functional
Acinetobacter baumannii [10] = assay: Antibacterial activity against intI1-positive tigecycline-susceptible Acinetobacter baumannii AB095 with PFGE subgroup E containing carbapenemase OXA-23 and OXA-51 by Etest in presence of 64 mg/liter 1-(1-naphthylmethyl)-piperazine; assay type: functional
Acinetobacter baumannii [11] = assay: Antibacterial activity against intI1-positive tigecycline-intermediate Acinetobacter baumannii AB127 with PFGE subgroup I containing carbapenemase OXA-23 and OXA-51 by Etest in presence of 64 mg/liter 1-(1-naphthylmethyl)-piperazine; assay type: functional
Acinetobacter baumannii [12] = assay: Antibacterial activity against intI1-positive tigecycline-resistant Acinetobacter baumannii AB125 with PFGE subgroup A1 containing carbapenemase OXA-23 and OXA-51 by Etest in presence of 64 mg/liter 1-(1-naphthylmethyl)-piperazine; assay type: functional
Acinetobacter baumannii [13] = assay: Antibacterial activity against intI1-positive tigecycline-susceptible Acinetobacter baumannii AB018 with PFGE subgroup G containing carbapenemase OXA-58 and OXA-51 by Etest in presence of 64 mg/liter 1-(1-naphthylmethyl)-piperazine; assay type: functional
Acinetobacter baumannii [14] = assay: Antibacterial activity against intI1-positive tigecycline-resistant Acinetobacter baumannii AB173 with PFGE subgroup B1 containing carbapenemase OXA-23 and OXA-51 by Etest in presence of 64 mg/liter 1-(1-naphthylmethyl)-piperazine; assay type: functional
Acinetobacter baumannii [15] = assay: Antibacterial activity against intI1-positive tigecycline-susceptible Acinetobacter baumannii AB018 with PFGE subgroup G containing carbapenemase OXA-58 and OXA-51 by Etest; assay type: functional
Acinetobacter baumannii [16] = assay: Antibacterial activity against intI1-positive tigecycline-resistant Acinetobacter baumannii AB113 with PFGE subgroup B1 containing carbapenemase OXA-23 and OXA-51 by Etest in presence of 64 mg/liter 1-(1-naphthylmethyl)-piperazine; assay type: functional
Acinetobacter baumannii [17] = assay: Antibacterial activity against intI1-positive tigecycline-resistant Acinetobacter baumannii AB168 with PFGE subgroup A1 containing carbapenemase OXA-23 and OXA-51 by Etest in presence of 64 mg/liter 1-(1-naphthylmethyl)-piperazine; assay type: functional
Acinetobacter baumannii [18] = assay: Antibacterial activity against Multidrug-resistant Acinetobacter baumannii clinical isolate by broth microdilution method; assay type: functional
Serum = assay: Steady state drug concentration in human serum; assay type: ADME, cell-free
Acinetobacter baumannii [19] = assay: Antibacterial activity against intI1-positive tigecycline-intermediate Acinetobacter baumannii AB127 with PFGE subgroup I containing carbapenemase OXA-23 and OXA-51 by Etest; assay type: functional
Acinetobacter baumannii [20] = assay: Antibacterial activity against intI1-positive tigecycline-resistant Acinetobacter baumannii AB134 with PFGE subgroup A2 containing carbapenemase OXA-23 and OXA-51 by Etest; assay type: functional
Acinetobacter baumannii [21] = assay: Antibacterial activity against intI1-positive tigecycline-susceptible Acinetobacter baumannii AB110 with PFGE subgroup C containing carbapenemase OXA-51 by Etest; assay type: functional
Acinetobacter baumannii [22] = assay: Antibacterial activity against intI1-negative tigecycline-intermediate Acinetobacter baumannii AB098 with PFGE subgroup F containing carbapenemase OXA-23 and OXA-51 by Etest; assay type: functional
Acinetobacter baumannii [23] = assay: Antibacterial activity against intI1-positive tigecycline-resistant Acinetobacter baumannii AB096 with PFGE subgroup B1 containing carbapenemase OXA-23 and OXA-51 by Etest; assay type: functional
Acinetobacter baumannii [24] = assay: Antibacterial activity against intI1-positive tigecycline-resistant Acinetobacter baumannii AB097 with PFGE subgroup B1 containing carbapenemase OXA-23 and OXA-51 by Etest; assay type: functional
Acinetobacter baumannii [25] = assay: Antibacterial activity against intI1-positive tigecycline-intermediate Acinetobacter baumannii AB166 with PFGE subgroup A3 containing carbapenemase OXA-51 by Etest in presence of 64 mg/liter 1-(1-naphthylmethyl)-piperazine; assay type: functional
Acinetobacter baumannii [26] = assay: Antibacterial activity against intI1-positive tigecycline-resistant Acinetobacter baumannii AB097 with PFGE subgroup B1 containing carbapenemase OXA-23 and OXA-51 by Etest in presence of 64 mg/liter 1-(1-naphthylmethyl)-piperazine; assay type: functional
Acinetobacter baumannii [27] = assay: Antibacterial activity against intI1-positive tigecycline-resistant Acinetobacter baumannii AB168 with PFGE subgroup A1 containing carbapenemase OXA-23 and OXA-51 by Etest; assay type: functional
Acinetobacter baumannii [28] = assay: Antibacterial activity against intI1-positive tigecycline-intermediate Acinetobacter baumannii AB099 with PFGE subgroup H containing carbapenemase OXA-23 and OXA-51 by Etest; assay type: functional
Acinetobacter baumannii [29] = assay: Antibacterial activity against intI1-positive tigecycline-susceptible Acinetobacter baumannii AB039 with PFGE subgroup B1 containing carbapenemase OXA-23 and OXA-51 by Etest; assay type: functional
Acinetobacter baumannii [30] = assay: Antibacterial activity against intI1-positive tigecycline-resistant Acinetobacter baumannii AB125 with PFGE subgroup A1 containing carbapenemase OXA-23 and OXA-51 by Etest; assay type: functional
Acinetobacter baumannii [31] = assay: Antibacterial activity against intI1-positive tigecycline-resistant Acinetobacter baumannii AB106 with PFGE subgroup B1 containing carbapenemase OXA-23 and OXA-51 by Etest; assay type: functional
Acinetobacter baumannii [32] = assay: Antibacterial activity against intI1-positive tigecycline-resistant Acinetobacter baumannii AB134 with PFGE subgroup A2 containing carbapenemase OXA-23 and OXA-51 by Etest in presence of 64 mg/liter 1-(1-naphthylmethyl)-piperazine; assay type: functional
Acinetobacter baumannii [33] = assay: Antibacterial activity against intI1-negative tigecycline-intermediate Acinetobacter baumannii AB098 with PFGE subgroup F containing carbapenemase OXA-23 and OXA-51 by Etest in presence of 64 mg/liter 1-(1-naphthylmethyl)-piperazine; assay type: functional
Acinetobacter baumannii [34] = assay: Antibacterial activity against intI1-positive tigecycline-resistant Acinetobacter baumannii AB113 with PFGE subgroup B1 containing carbapenemase OXA-23 and OXA-51 by Etest; assay type: functional
Acinetobacter baumannii [35] = assay: Antibacterial activity against intI1-positive tigecycline-intermediate Acinetobacter baumannii AB166 with PFGE subgroup A3 containing carbapenemase OXA-51 by Etest; assay type: functional
Acinetobacter baumannii [36] = assay: Antibacterial activity against intI1-positive tigecycline-resistant Acinetobacter baumannii AB173 with PFGE subgroup B1 containing carbapenemase OXA-23 and OXA-51 by Etest; assay type: functional

CN(C)c1cc(NC(=O)CNC(C)(C)C)c(O)c2c1C[C@H]1C[C@H]3[C@H](N(C)C)C(O)=C(C(N)=O)C(=O)[C@@]3(O)C(O)=C1C2=O [TIGECYCLINE]
MIC (Acinetobacter baumannii [1]): 4 µg/mL
MIC (Acinetobacter baumannii [2]): 6 µg/mL
MIC (Acinetobacter baumannii [3]): 8 µg/mL
MIC (Acinetobacter baumannii [4]): 8 µg/mL (≈ 13.7 µM)
MIC (Acinetobacter baumannii [5]): 6 µg/mL
MIC (Acinetobacter baumannii [6]): 2 µg/mL (≈ 3.41 µM)
MIC (Acinetobacter baumannii [7]): 4 µg/mL
MIC (Acinetobacter baumannii [8]): 4 µg/mL
MIC50 (Acinetobacter baumannii [9]): 2 µg/mL (≈ 3.41 µM)
MIC90 (Acinetobacter baumannii [9]): 4 µg/mL (≈ 6.83 µM)
MIC (Acinetobacter baumannii [10]): 3 µg/mL
MIC (Acinetobacter baumannii [11]): 4 µg/mL
MIC (Acinetobacter baumannii [12]): 8 µg/mL
MIC (Acinetobacter baumannii [13]): 2 µg/mL
MIC (Acinetobacter baumannii [14]): 4 µg/mL
MIC (Acinetobacter baumannii [15]): 2 µg/mL (≈ 3.41 µM)
MIC (Acinetobacter baumannii [16]): 4 µg/mL
MIC (Acinetobacter baumannii [17]): 4 µg/mL
MIC50 (Acinetobacter baumannii [18]): 16 µg/mL (≈ 27.3 µM)
MIC90 (Acinetobacter baumannii [18]): 32 µg/mL (≈ 54.6 µM)
Css (Serum): 630 ng/mL
MIC (Acinetobacter baumannii [19]): 4 µg/mL (≈ 6.83 µM)
MIC (Acinetobacter baumannii [20]): 8 µg/mL (≈ 13.7 µM)
MIC (Acinetobacter baumannii [21]): 2 µg/mL (≈ 3.41 µM)
MIC (Acinetobacter baumannii [22]): 6 µg/mL (≈ 10.2 µM)
MIC (Acinetobacter baumannii [23]): 16 µg/mL (≈ 27.3 µM)
MIC (Acinetobacter baumannii [24]): 12 µg/mL (≈ 20.5 µM)
MIC (Acinetobacter baumannii [25]): 4 µg/mL
MIC (Acinetobacter baumannii [26]): 4 µg/mL
MIC (Acinetobacter baumannii [27]): 8 µg/mL (≈ 13.7 µM)
MIC (Acinetobacter baumannii [28]): 6 µg/mL (≈ 10.2 µM)
MIC (Acinetobacter baumannii [29]): 2 µg/mL (≈ 3.41 µM)
MIC (Acinetobacter baumannii [30]): 8 µg/mL (≈ 13.7 µM)
MIC (Acinetobacter baumannii [31]): 8 µg/mL (≈ 13.7 µM)
MIC (Acinetobacter baumannii [32]): 3 µg/mL
MIC (Acinetobacter baumannii [33]): 4 µg/mL
MIC (Acinetobacter baumannii [34]): 8 µg/mL (≈ 13.7 µM)
MIC (Acinetobacter baumannii [35]): 4 µg/mL (≈ 6.83 µM)
MIC (Acinetobacter baumannii [36]): 8 µg/mL (≈ 13.7 µM)

C[C@H]1COc2c(N3CCN(C)CC3)c(F)cc3c(=O)c(C(=O)O)cn1c23.C[C@H]1COc2c(N3CCN(C)CC3)c(F)cc3c(=O)c(C(=O)O)cn1c23.O [LEVOFLOXACIN]
MIC (Acinetobacter baumannii [4]): > 32 µg/mL
MIC (Acinetobacter baumannii [6]): > 32 µg/mL
MIC (Acinetobacter baumannii [15]): 6 µg/mL
MIC (Acinetobacter baumannii [19]): > 32 µg/mL
MIC (Acinetobacter baumannii [20]): > 32 µg/mL
MIC (Acinetobacter baumannii [21]): 12 µg/mL
MIC (Acinetobacter baumannii [22]): > 32 µg/mL
MIC (Acinetobacter baumannii [23]): > 32 µg/mL
MIC (Acinetobacter baumannii [24]): > 32 µg/mL
MIC (Acinetobacter baumannii [27]): > 32 µg/mL
MIC (Acinetobacter baumannii [28]): > 32 µg/mL
MIC (Acinetobacter baumannii [30]): > 32 µg/mL
MIC (Acinetobacter baumannii [31]): 32 µg/mL
MIC (Acinetobacter baumannii [34]): > 32 µg/mL
MIC (Acinetobacter baumannii [35]): > 32 µg/mL
MIC (Acinetobacter baumannii [36]): > 32 µg/mL
